US6590083B1, “Ketolide antibacterials” (Ortho-McNeil Pharmaceutical, Inc., priority 1999, dated 2003)
Values after ≈ are worked out from the molar mass of the structure shown.

Experiments:
Test in all cases: In vitro susceptibility testing, MIC by NCCLS broth microdilution
H. influenzae OC4883 = format: cell-based, Haemophilus influenzae; details: Haemophilus test media, 35° C.
Method: (§1) Minimum inhibitory concentrations (“MICs”) were determined by the NCCLS broth microdilution procedure for susceptibility testing for bacteria that grow aerobically (National Committee for Clinical Laboratory Standards, 1997. Methods for dilution antimicrobial Susceptibility tests for bacteria that grow aerobically, 4th ed. Approved standard. NCCLS Document M7-A4. National Committee for Clinical Laboratory Standards, Villanova, Pa.). stock solutions were prepared on the day of the test and appropriate aliquots were added to cation adjusted Mueller-Hinton broth (CAMHB) or Haemophilus test media. Two-fold serial dilutions were prepared and added to wells in microtiter plates. Final test concentrations ranged from 16 to 0.015 μg/ml. Broth cultures of bacteria inoculated from growth on overnight plates for all test bacteria except Streptococcus pneumoniae and Haemophilus influenzae were incubated at 35° C. and then adjusted to the Kirby Bauer standard and diluted in CAMHB to achieve a final inoculum concentration of approximately 5×10^5 CFU/ml. Inocula for S. pneumoniae and H. influenzae were prepared by directly suspending colonies from an overnight plate, adjusting the turbidity and diluting as above. S. pneumoniae media was supplemented with 2.5% lysed horse blood. […]

S. aureus ATCC29213 = format: cell-based; details: CAMHB, 35° C., 16-20 h
Method: (§2) Minimum inhibitory concentrations (“MICs”) were determined by the NCCLS broth microdilution procedure for susceptibility testing for bacteria that grow aerobically (National Committee for Clinical Laboratory Standards, 1997. Methods for dilution antimicrobial Susceptibility tests for bacteria that grow aerobically, 4th ed. Approved standard. NCCLS Document M7-A4. National Committee for Clinical Laboratory Standards, Villanova, Pa.). stock solutions were prepared on the day of the test and appropriate aliquots were added to cation adjusted Mueller-Hinton broth (CAMHB) or Haemophilus test media. Two-fold serial dilutions were prepared and added to wells in microtiter plates. Final test concentrations ranged from 16 to 0.015 μg/ml. Broth cultures of bacteria inoculated from growth on overnight plates for all test bacteria except Streptococcus pneumoniae and Haemophilus influenzae were incubated at 35° C. and then adjusted to the Kirby Bauer standard and diluted in CAMHB to achieve a final inoculum concentration of approximately 5×10^5 CFU/ml. Inocula for S. pneumoniae and H. influenzae were prepared by directly suspending colonies from an overnight plate, adjusting the turbidity and diluting as above. S. pneumoniae media was supplemented with 2.5% lysed horse blood. All plates were incubated in ambient air at 35° C. for […] for S. peteumoniae and Haemophilus influenzae and 16-20 h for all other bacteria.

E. faecalis ATCC29212 = format: cell-based; details: CAMHB, 35° C., 16-20 h
Method: as §2

E. coli OC2605 = format: cell-based; details: CAMHB, 35° C., 16-20 h
Method: as §2

S. pneumoniae ATCC49619 = format: cell-based, Streptococcus pneumoniae; details: media with 2.5% lysed horse blood, 35° C.
Method: as §1

CC[C@H]1OC(=O)[C@H](C)[C@@H](O[C@H]2C[C@@](C)(OC)[C@@H](O)[C@H](C)O2)[C@H](C)[C@@H](O[C@@H]2O[C@H](C)C[C@H](N(C)C)[C@H]2O)[C@](C)(O)C[C@@H](C)C(=O)[C@H](C)[C@@H](O)[C@]1(C)O [Erythromycin]
MIC (H. influenzae OC4883; Haemophilus influenzae, OC4883, Table 3, Table 2 compounds): 1 µg/mL (≈ 1.36 µM)
In Vitro Susceptibility (MIC) H. influenzae OC4883 (H. influenzae OC4883; Table 4, Formula III compounds): 1 µg/mL
MIC (S. aureus ATCC29213; Staphylococcus aureus, ATCC29213, Table 3, Table 2 compounds): 0.5 µg/mL (≈ 0.681 µM)
In Vitro Susceptibility (MIC) S. aureus ATCC29213 (S. aureus ATCC29213; Table 4, Formula III compounds): 0.5 µg/mL
MIC (E. faecalis ATCC29212; Enterococcus faecalis, ATCC29212, Table 3, Table 2 compounds): 1 µg/mL (≈ 1.36 µM)
In Vitro Susceptibility (MIC) E. faecalis ATCC29212 (E. faecalis ATCC29212; Table 4, Formula III compounds): 1 µg/mL
MIC (E. coli OC2605; Escherichia coli, OC2605, Table 3, Table 2 compounds): > 16 µg/mL
In Vitro Susceptibility (MIC) E. coli OC2605 (E. coli OC2605; Table 4, Formula III compounds): >16 µg/mL
MIC (S. pneumoniae ATCC49619; Streptococcus pneumoniae, ATCC49619, Table 3, Table 2 compounds): 0.06 µg/mL (≈ 0.0818 µM)
In Vitro Susceptibility (MIC) S. pneumoniae ATCC49619 (S. pneumoniae ATCC49619; Table 4, Formula III compounds): 0.06 µg/mL
